Measurements taken from patent US10954252B1, “Inhibitors of human immunodeficiency virus replication” (ViiV HEALTHCARE UK (NO.5) LIMITED, priority 2017, dated 2021).
Counter-ions that a name gives are not always drawn.

Columns and labels:
[1] = Compound cytotoxicity, XTT-based colorimetric assay; format: cell-based; conditions: human, uninfected MT2 cells
How it was run: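 CC50 from uninfected MT2 cells run under the antiviral-assay protocol without virus. Viability read on day 4 by XTT colorimetric assay.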

[2] = test system: recombinant NL4-3 virus (nef section replaced with Renilla luciferase gene) in MT-2 cells; assay: HIV cell culture assay (antiviral activity, luciferase readout); format: cell-based; conditions: MT-2 cells infected for 4-5 days with recombinant NL4-3 luciferase virus
How it was run: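 NL4-3 reporter virus carrying Renilla luciferase in place of part of nef, produced in 293T cells, was used to infect MT-2 cells for 4-5 days with serial compound dilutions. Luciferase activity was read with a live-cell substrate; EC50 derived from the median effect equation.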

Structure (SMILES) | CC50 at 4 days ([1]; Table 1a, day 4, XTT) [nM] | EC50 ([2]; Renilla, NL43, Table 1a) [nM] | CC50 at 4 days ([1]; Table 1, day 4, XTT) [nM] | other results
Cn1nc(NS(C)(=O)=O)c2c(Cl)ccc(-n3c(C(Cc4cc(F)cc(F)c4)NC(=O)Cn4nc(C(F)F)c5c4C(F)(F)[C@@H]4C[C@H]54)nc4nc(C#N)ccc4c3=O)c21 (mixture of isomers) [Example 40.1, N-(1-(3-(4-chloro-1l-methyl-3-(methylsulfonamido)-1H-indazol-7-yl)-7-cyano-4-oxo-3,4-dihydropyrido[2,3-d]pyrimidin-2-yl)-2-(3,5-difluorophenyl)ethyl)-2-((3bS,4aR)-3-(difluoromethyl)-5,5-difluoro-3b,4,4a,5-tetrahydro-1H-cyclopropa[3,4]cyclopenta[1,2-c]pyrazol-1-yl)acetamide] | > 1000 | 0.58 | – | –
Cn1nc(NS(C)(=O)=O)c2c(Cl)ccc(-c3cc4sc(N)nc4nc3C(Cc3cc(F)cc(F)c3)NC(=O)Cn3nc(C(F)F)c4c3C(F)(F)[C@@H]3C[C@H]43)c21 (mixture of isomers) [Example 194, N-(1-(2-amino-6-(4-chloro-1-methyl-3-(methylsulfonamido)-1H-indazol-7-yl)thiazolo[4,5-b]pyridin-5-yl)-2-(3,5-difluorophenyl)ethyl)-2-((3bS,4aR)-3-(difluoromethyl)-5,5-difluoro-3b,4,4a,5-tetrahydro-1H-cyclopropa[3,4]cyclopenta[1,2-c]pyrazol-1-yl)acetamide] | > 10000 | 1.9 | – | –
Cn1nc(NS(C)(=O)=O)c2c(Cl)ccc(-n3c([C@H](Cc4cc(F)cc(F)c4)NC(=O)Cn4nc(C(F)F)c5c4C(F)(F)[C@@H]4C[C@H]54)nc4ccc(F)c(Cl)c4c3=O)c21 (single isomer, unassigned) [Example 160] | > 1000 | – | – | EC50 ([2]; Table 1a): 0.18 nM
Cn1nc(NS(C)(=O)=O)c2c(Cl)ccc(-n3c([C@H](Cc4cc(F)cc(F)c4)NC(=O)Cn4nc(C(F)F)c5c4C(F)(F)[C@@H]4C[C@H]54)nc4ncccc4c3=O)c21 (single isomer, unassigned) [Example 10.39] | – | – | > 10000 | EC50 ([2]; Table 1): 6.98 nM
Cn1nc(NS(C)(=O)=O)c2c(Cl)ccc(-n3c([C@H](Cc4cc(F)cc(F)c4)NC(=O)Cn4nc(C(F)F)c5c4C(F)(F)[C@@H]4C[C@H]54)nc4cc(CS(C)(=O)=O)ccc4c3=O)c21 (mixture of isomers) [Example 201, N—((S)-1-(3-(4-chloro-1-methyl-3-(methylsulfonamido)-1H-indazol-7-yl)-7-((methylsulfonyl)methyl)-4-oxo-3,4-dihydroquinazolin-2-yl)-2-(3,5-difluorophenyl)ethyl)-2-((3bS,4aR)-3-(difluoromethyl)-5,5-difluoro-3b,4,4a,5-tetrahydro-1H-cyclopropa[3,4]cyclopenta[1,2-c]pyrazol-1-yl)acetamide] | > 1000 | – | – | EC50 ([2]; Table 1a): 71.8 nM
CS(=O)(=O)Nc1nn(CC(F)F)c2c(-n3c([C@H](Cc4cc(F)cc(F)c4)NC(=O)Cn4nc(C(F)F)c5c4C(F)(F)[C@@H]4C[C@H]54)nc4ncccc4c3=O)ccc(Cl)c12 (single isomer, unassigned) [Example 44.1] | > 10000 | 0.049 | – | –
CC(C)c1ccc(-c2c([C@H](Cc3cc(F)cc(F)c3)NC(=O)Cn3nc(C(F)F)c4c3C(F)(F)[C@@H]3C[C@H]43)nc3ncnn3c2N)cn1 [Example 10.32, N—((S)-1-(7-amino-6-(6-isopropylpyridin-3-yl)-[1,2,4]triazolo[1,5-a]pyrimidin-5-yl)-2-(3,5-difluorophenyl)ethyl)-2-((3bS,4aR)-3-(difluoromethyl)-5,5-difluoro-3b,4,4a,5-tetrahydro-1H-cyclopropa[3,4]cyclopenta[1,2-c]pyrazol-1-yl)acetamide] | – | – | > 10000 | EC50 ([2]; Renilla, NL43, Table 1): 54 nM
Cn1nc(NS(C)(=O)=O)c2c(Cl)ccc(-n3c(C(Cc4cc(F)cc(F)c4)NC(=O)Cn4nc(C(F)F)c5c4C(F)(F)[C@@H]4C[C@H]54)nc4c(F)cc(F)cc4c3=O)c21 (stereo partly drawn) [Example 73] | > 1000 | 1.53 | – | –
Cc1nc2nc(C(Cc3cc(F)cc(F)c3)NC(=O)Cn3nc(C(F)F)c4c3CCC4)c(-c3ccc(Cl)c4c(NS(C)(=O)=O)nn(C)c34)cc2s1 (single isomer, unassigned) [Example 2.3, N-(1-(6-(4-chloro-1-methyl-3-(methylsulfonamido)-1H-indazol-7-yl)-2-methylthiazolo[4,5-b]pyridin-5-yl)-2-(3,5-difluorophenyl)ethyl)-2-(3-(difluoromethyl)-5,6-dihydrocyclopenta[c]pyrazol-1(4H)-yl)acetamide] | – | – | > 10000 | EC50 ([2]; Table 1): 0.1 nM
Cn1nc(NS(C)(=O)=O)c2c(Cl)ccc(-n3c([C@H](Cc4cc(F)cc(F)c4)NC(=O)Cn4nc(C(F)F)c5c4C(F)(F)[C@@H]4C[C@H]54)nc4cc(C(F)(F)F)ccc4c3=O)c21 (single isomer, unassigned) [Example 137] | > 1000 | – | – | EC50 ([2]; Table 1a): 9.89 nM
Cn1nc(NS(C)(=O)=O)c2c(Cl)ccc(-n3c([C@H](Cc4cc(F)cc(F)c4)NC(=O)Cn4nc(C(F)F)c5c4C(F)(F)[C@@H]4C[C@H]54)nc4ccc(F)cc4c3=O)c21 (single isomer, unassigned) [Example 21] | – | – | > 2700 | EC50 ([2]; Renilla, NL43, Table 1): 45 nM
CC1(S(=O)(=O)NC(=O)c2cc(-c3cc4[nH]ncc4nc3[C@H](Cc3cc(F)cc(F)c3)NC(=O)Cn3nc(C(F)F)c4c3C(F)(F)[C@@H]3C[C@H]43)ccc2Cl)CC1 [Example 10.20, 2-Chloro-5-(5-((S)-1-(2-((3bS,4aR)-3-(difluoromethyl)-5,5-difluoro-3b,4,4a,5-tetrahydro-1H-cyclopropa[3,4]cyclopenta[1,2-c]pyrazol-1-yl)acetamido)-2-(3,5-difluorophenyl)ethyl)-1H-pyrazolo[4,3-b]pyridin-6-yl)-N-((1-methylcyclopropyl)sulfonyl)benzamide] | – | – | > 10000 | EC50 ([2]; Renilla, NL43, Table 1): 290 nM
CC(C)(c1ccc2c(=O)n(-c3ccc(Cl)c4c(NS(=O)(=O)C5CC5)nn(CC(F)F)c34)c([C@H](Cc3cc(F)cc(F)c3)NC(=O)Cn3nc(C(F)F)c4c3C(F)(F)[C@@H]3C[C@H]43)nc2c1)S(C)(=O)=O [Example 214, N—((S)-1-(3-(4-chloro-3-(cyclopropanesulfonamido)-1-(2,2-difluoroethyl)-1H-indazol-7-yl)-7-(2-(methylsulfonyl)propan-2-yl)-4-oxo-3,4-dihydroquinazolin-2-yl)-2-(3,5-difluorophenyl)ethyl)-2-((3bS,4aR)-3-(difluoromethyl)-5,5-difluoro-3b,4,4a,5-tetrahydro-1H-cyclopropa[3,4]cyclopenta[1,2-c]pyrazol-1-yl)acetamide, TFA] | > 1000 | 0.071 | – | –
Cn1nc(NS(C)(=O)=O)c2c(Cl)ccc(-n3c([C@H](Cc4cc(F)cc(F)c4)NC(=O)Cn4nc(C(F)F)c5c4C(F)(F)[C@@H]4C[C@H]54)nc4cc(S(C)(=O)=O)ccc4c3=O)c21 (mixture of isomers) [Example 199, N—((S)-1-(3-(4-chloro-1-methyl-3-(methylsulfonamido)-1H-indazol-7-yl)-7-(methylsulfonyl)-4-oxo-3,4-dihydroquinazolin-2-yl)-2-(3,5-difluorophenyl)ethyl)-2-((3bS,4aR)-3-(difluoromethyl)-5,5-difluoro-3b,4,4a,5-tetrahydro-1H-cyclopropa[3,4]cyclopenta[1,2-c]pyrazol-1-yl)acetamide] | > 1000 | – | – | EC50 ([2]; Table 1a): 32.8 nM
COc1ccc2c(=O)n(-c3ccc(Cl)c4c(NS(C)(=O)=O)nn(CC(F)F)c34)c([C@H](Cc3cc(F)cc(F)c3)NC(=O)Cn3nc(C(F)F)c4c3C(F)(F)[C@@H]3C[C@H]43)nc2c1 (single isomer, unassigned) [Example 191] | > 1000 | 0.06 | – | –
Cn1nc(NS(C)(=O)=O)c2c(Cl)ccc(-n3c([C@H](Cc4cc(F)cc(F)c4)NC(=O)Cn4nc(C(F)F)c5c4C(F)(F)[C@@H]4C[C@H]54)nc4ccc(F)c(Cl)c4c3=O)c21 (mixture of isomers) [Example 159, N—((S)-1-(5-chloro-3-(4-chloro-1-methyl-3-(methylsulfonamido)-1H-indazol-7-yl)-6-fluoro-4-oxo-3,4-dihydroquinazolin-2-yl)-2-(3,5-difluorophenyl)ethyl)-2-((3bS,4aR)-3-(difluoromethyl)-5,5-difluoro-3b,4,4a,5-tetrahydro-1H-cyclopropa[3,4]cyclopenta[1,2-c]pyrazol-1-yl)acetamide] | > 1000 | 9.49 | – | –
CC(C)S(=O)(=O)NC(=O)c1cc(-c2cc3[nH]ncc3nc2[C@H](Cc2cc(F)cc(F)c2)NC(=O)Cn2nc(C(F)F)c3c2C(F)(F)[C@@H]2C[C@H]32)ccc1Cl [Example 10.19, 2-chloro-5-(5-((S)-1-(2-((3bS,4aR)-3-(difluoromethyl)-5,5-difluoro-3b,4,4a,5-tetrahydro-1H-cyclopropa[3,4]cyclopenta[1,2-c]pyrazol-1-yl)acetamido)-2-(3,5-difluorophenyl)ethyl)-1H-pyrazolo[4,3-b]pyridin-6-yl)-N-(isopropylsulfonyl)benzamide] | – | – | > 10000 | EC50 ([2]; Renilla, NL43, Table 1): 220 nM
COc1ccc2c(=O)n(-c3ccc(Cl)c4c(NS(C)(=O)=O)nn(C)c34)c([C@H](Cc3cc(F)cc(F)c3)NC(=O)Cn3ccc(C4CC4)n3)nc2n1 (mixture of isomers) [Example 58.1, N-[(1S)-1-[3-(4-chloro-3-methanesulfonamido-1-methyl-1H-indazol-7-yl)-7-methoxy-4-oxo-3H,4H-pyrido[2,3-d]pyrimidin-2-yl]-2-(3,5-difluorophenyl)ethyl]-2-(3-cyclopropyl-1H-pyrazol-1-yl)acetamide] | > 1000 | – | – | EC50 ([2]; Table 1a): 2.26 nM
